Ten compounds from US20070092942A1, “Ubiquitin specific enzymes of family herpesviridae” (priority 2005, published 2007) can be followed below.

In one experiment the test system is UL36^USP. Nature of the experiment: Electrophilic probe labeling of HSV-1 infected HFF cell lysates, immunoblot. The class given is binding. As to conditions: for Labeling / reaction of UL36^USP by electrophilic probe: HSV-infected HFF lysates, immunoblot. Here is the method: HFFs were infected with HSV-1 KOS at an MOI of 10 and harvested by trypsinolysis at the indicated times post infection. Cells were washed 1× in PBS and pelleted by centrifugation in a microcentrifuge at 3,000×g for 20 minutes at 4° C. Cells were lysed by adding 2× the pellet volume of NP40 lysis buffer (150 mM NaCl, 50 mM Tris pH 7.4, 5 mM MgCl2, 0.5 mM EDTA, 2 mM DTT, 2 mM ATP, 0.5% NP40) and rocking at 4° C. for 1 hour. Cell lysates were centrifuged at 12,000×g for 20 minutes at 4° C. Protein concentration of supernatants was established by Bradford assay and lysates were standardized to 5 μg/μl by the addition of the required volume of NP40 lysis buffer. For each labeling reaction, 50 μg of lysate was incubated with 0.8 μg of probe in a total volume of 60 μL of homogenization buffer (50 mM Tris pH 7.5, 5 mM MgCl2, 0.5 mM EDTA, 2 mM DTT, 2 mM ATP, 250 mM sucrose). For reactions involving NEM, lysates were incubated at room temperature for 30 minutes with 5 mM NEM prior to addition of probe. Reactions were incubated for 30 minutes at R.T. Samples were boiled in reducing sample buffer and separated by SDS-PAGE. Proteins were transferred to PVDF membranes and immunoblotted with mouse monoclonal anti-HA antibody (12CA5) at 1:4000 dilution followed by goat anti-mouse IgG-HRP (Southern Biotech) at 1: 10,000 dilution. Blots were developed using Western Lightning chemiluminescence reagent (Perkin Elmer).
To profile DUB activity during HSV-1 infection, we used HA-tagged Ub-vinylmethyl ester (HAUbVME) (Borodovsky et al., 2002). Human foreskin fibroblasts (HFFs) were infected with HSV-1 at a multiplicity of infection of 10, harvested at 4, 6, 9, 12, 22 and 30 hours post-infection (p.i.), and lysed.
To address whether UL36^USP labeling by HAUbVME was a consequence of the Ub or the VME moiety, we incubated lysates of HSV-infected HFFs at 24 hours p.i. with related electrophilic derivatives (Borodovsky et al., 2002). […] There are a number of Ub-like (UbL) proteins in eukaryotes (Larsen and Wang, 2002). This family of UbL proteins has diversified functionally to cover many cellular pathways: SUMO proteins function in nuclear signaling and transcription (Hay, 2005); ISG15 is an interferon-inducible gene product (Ritchie and Zhang, 2004); and the closest homolog of Ub, Nedd8, is an activator of the cullin family of E3 Ub ligases (Petroski and Deshaies, 2005; Willems et al., 2004). Probes derived from Ub and UbL modifiers target proteases that are either specific for a single Ub/UbL or selective for a limited number of these proteases (Borodovsky et al., 2002; Hemelaar et al., 2004). We explored the reactivity of UL36^USP with Ub and UbL-derived probes to determine its specificity. We incubated lysates of mock-infected and HSV-infected HFFs at 24 hours p.i. with either HAUbVME or with one of three UbL probes, HA-SUMO-1-VME, HA-ISG15-VME or FLAG-Nedd8-VS (FIG. 4B).

Experiment [1] concerns the target T1, EBV205 (AA 1-205 of EBV BPLF1) (Epstein-Barr virus, UniProt P03186).
T1 construct: encoding for AA 1-205 of EBV (EBV205) and AA 1-285 of mCMV (mCMV285); His-tag (pET28) (N); made in house; host or cells: E. coli BL21-DE3
It is filed as binding. The text has this: (§1) To investigate functionality of this minimal DUB consensus domain we cloned the relevant genomic fragments for heterologous expression and subsequent biochemical characterization. The corresponding DNA fragments, encoding for AA 1-205 of EBV (EBV205) and AA 1-285 of mCMV (mCMV285), were PCR-cloned into pET28 according to standard procedures. Following expression in E. coli BL21-DE3, the fragments bearing a N-terminal His-tag were purified using a Ni-NTA resin (Qiagen) and subsequently subjected to a gel filtration column (S75 HiLoad, Amersham Pharmacia Biotech) equilibrated in storage buffer (50 mM Tris, 50 mM KCl, 50 mM NaCl, 0.5 mM EDTA, 2 mM DTT, 10% (v/v) glycerol, pH 7.5) to achieve apparent homogeneity. To address whether the purified constructs display DUB activity, we used HA-tagged Ub-vinylmethyl ester (HAUbVME), a probe that acts as suicide substrate for DUBs by forming a thioether bond to the active site cysteine. Reactions were performed using final concentrations of 1 μM enzyme (EBV205 or mCMV285) in the absence and presence of 2 μM HAUbVME in reaction buffer (50 mM Tris, 100 mM NaCl, 1 mM DTT pH 7.5) for 30 min at 37° C. Following incubation, samples were boiled in reducing sample buffer and subjected to SDS-PAGE.
(§2) In the case of mCMV, we also constructed a longer variant that terminates at position 575 (mCMV575).

Experiment [2] deals with mCMV285, mCMV575 (mCMV UL36 homologue). Nature of the experiment: HAUbVME labeling of purified recombinant mCMV285 / mCMV575, SDS-PAGE and immunoblot. The class given is binding, mouse cytomegalovirus.
Text: as §1, §2

For a further experiment, the system named is mCMV285, mCMV575. Nature of the experiment: UbAMC hydrolysis assay with mCMV285 and mCMV575. It is filed as biochemical, mouse cytomegalovirus. As to conditions: enzyme 100 pM, Ub-AMC 100 nM. Here is the method:
(§3) We next tested the ability of the enzymes to cleave Ub-AMC (Ub C-terminal 7-amido-4-methylcoumarin, Boston Biochem). UbAMC hydrolysis assays were performed in reaction buffer supplemented with BSA (50 μg/ml) by incubating the enzymes (100 pM) with a large excess of Ub-AMC (100 nM). […] To address this issue, we tested the potential of several inhibitors to block DUB activity in Ub-AMC hydrolysis assays. Enzymes were preincubated for 1 h with a 100-fold molar excess of electrophilic derivatives of Ub, SUMO, NEDD8, and ISG15, all carrying a VME moiety as the electrophile at their C-terminus.

Another experiment has as its target T2, EBV205 (Epstein-Barr virus, UniProt P03186).
T2 construct: encoding for AA 1-205 of EBV (EBV205) and AA 1-285 of mCMV (mCMV285); His-tag (pET28) (N); made in house; host or cells: E. coli BL21-DE3
It is filed as biochemical. As to conditions: enzyme 100 pM, Ub-AMC 100 nM. Here is the method: as §3

In a further experiment the target is T3, His6UL36^USP (Human herpesvirus 1, UniProt P10220).
T3 construct: amino acids 1 to 533 of the UL36 gene product from HHV HSV1; 6-His (pET-28a(+)) (N); 6-His (pET-28a(+)) (C); made in house; host or cells: E. coli BL21 or BL21 RIPL
Nature of the experiment: Cleavage of Ub-AMC by recombinant UL36^USP. It is filed as biochemical, HSV-1. As to conditions: 10 pmol inhibitor pre-incubated 30 minutes with ~0.1 pmol enzyme. As for the experimental part:
Recombinant UL36^USP and UL36^USP/C65A (˜0.1 pmol) were incubated in 125 μl kinetics buffer (50 mM HEPES, pH 7.5, 0.5 mM EDTA) supplemented with 1 mM DTT at room temperature for 10 minutes. To this was added 75 μl of Ub-AMC (250 nM in kinetics buffer) and AMC liberation was measured at 25° C. For inhibition experiments, one of UbVME, SUMO-VME, ISG15-VS, or Nedd8-VS (10 pmol) was incubated with recombinant UL36^USP (˜0.1 pmol) for 30 minutes at room temperature. To this was added 75 μl of Ub-AMC (250 nM in kinetics buffer) and AMC liberation was measured. Cleavage experiments were performed in triplicate. All fluorescence measurements were made using a Wallac Victor^3 1420 fluorescence/luminescence plate reader (Perkin Elmer) using 380 nm excitation and 460 nm emission wavelengths, with 5 second intervals between measurements. Data were exported as an Excel file and plotted as mean values of replicate experiments using Kaleidagraph v3.6 (Synergy Software).
In a typical eukaryotic cell, the presence of multiple DUBs, whose substrate pool and catalytic activities may overlap, confounds straightforward analysis of the activity of any one particular DUB. Although we have found excellent correlation between labeling of polypeptides with the Ub/UbL probes and their identification as active DUBs, the probes are covalent inactivators and cannot be used to assess enzymatic (i.e. catalytic) peptidase activity. To validate the activity of UL36^USP as a protease with specificity for Ub-modified substrates, we cloned a sequence spanning the 533 N-terminal amino acids of HSV-1 UL36^USP into a His-tagged expression vector (His6-UL36^USP). We also generated a point mutant of this construct in which the active site cysteine residue, Cys^65, was replaced by alanine (His6UL36^USP/C65A). The proteins were expressed, purified over Ni-NTA resin and evaluated for their ability to cleave Ub C-terminal 7-amido-4-methylcoumarin (Ub-AMC) (Dang et al., 1998). […] The results are consistent with the labeling experiments using UbL probes with HSV-1-infected lysates (FIG. 4B).

Where [3] appears, read: pretreatment with 10 mM NEM for 10 min.
The mark [4] stands for this setting: 1 μM enzyme, 2 μM HAUbVME, 30 min at 37° C.
Where [5] appears, read: preincubated 1 h with 100-fold molar excess of inhibitor.

As for `CCN1C(=O)C=CC1=O` [NEM, N-ethylmaleimide], in the experiment with UL36^USP (HSV-1 infected HFF lysates, 5 mM NEM 30 minutes prior to probe), the “Effect on labeling of the 57 kDa polypeptide with HAUbVME” value is listed as “inhibited”. Besides, in experiment [1] (setting [3]), the “Effect on labeling of EBV205 with HAUbVME probe” value is given as “completely blocked labeling”. Further, the “Effect on reaction of mCMV575 with HAUbVME” value in experiment [2] (mCMV575 variant) is on record as “NEM-sensitive”. Besides, in experiment [2] (setting [3]), the “Effect on labeling of mCMV285 with HAUbVME probe” value was “completely blocked labeling”. In the experiment on mCMV285, mCMV575, the “Sensitivity of UbAMC hydrolysis by mCMV285 / mCMV575 to NEM” value is “sensitive to NEM”. Further, the “Sensitivity of UbAMC hydrolysis by EBV205 to NEM” value on EBV205 is listed as “sensitive to NEM”.

Turning to “FLAG-Nedd8-VS: UbL probe (9.7 kDa), FLAG-tagged Nedd8 vinylsulfone”, in the experiment with UL36^USP, the “Labeling / reaction of UL36^USP by electrophilic probe” value (“Labeling / reaction of UL36^USP” below) is “did not observe reaction”. As to “HA-ISG15-VME: UbL probe (18.8 kDa), HA-tagged ISG15 vinylmethyl ester”, the “Labeling / reaction of UL36^USP” value in the experiment with UL36^USP is listed as “did not observe reaction”. Turning to “HA-SUMO-1-VME: UbL probe (12.8 kDa), HA-tagged SUMO-1 vinylmethyl ester”, the “Labeling / reaction of UL36^USP” value in the experiment on UL36^USP is “did not observe reaction”.

Turning to “HAUbVME: HA-tagged Ub-vinylmethyl ester, electrophilic Ub probe forming thioether bond to DUB active site cysteine”, the “Labeling / reaction of UL36^USP” value in the experiment on UL36^USP is recorded as “observed labeling”. In experiment [1] (setting [4]), the “Covalent modification of EBV205 by probe (shift in electrophoretic mobility)” value was “covalent modification”. Moreover, the “Covalent modification of mCMV285 by probe (shift in electrophoretic mobility)” value in experiment [2] (setting [4]) is “covalent modification”. As for “HAUbVS: HAUb-vinylsulfone, Ub-derived electrophilic probe”, the “Labeling / reaction of UL36^USP” value in the experiment with UL36^USP is on record as “comparably robust labeling”. Consider “ISG15-VS: electrophilic ISG15 derivative used as inhibitor”, for which, in the experiment with His6UL36^USP, the “Inhibition of Ub-AMC cleavage by His6UL36^USP” value (“Inhibition of Ub-AMC cleavage” for short) is recorded as “rates nearly identical to hydrolysis in the absence of these inhibitors”. On to “Nedd8-VS: electrophilic Nedd8 vinylsulfone derivative used as inhibitor”, for which the “Inhibition of Ub-AMC cleavage” value with His6UL36^USP is “rates nearly identical to hydrolysis in the absence of these inhibitors”. Same read-out and setting: with “SUMO-1-VS: electrophilic SUMO-1 derivative used as inhibitor” the entry was “rates nearly identical to hydrolysis in the absence of these inhibitors”. “UbVME: electrophilic derivative of Ub carrying a VME moiety at its C-terminus, covalent DUB inhibitor”: in the experiment with His6UL36^USP, the “Inhibition of Ub-AMC cleavage” value was “complete inhibition”. For the same compound, the “Inhibition of UbAMC hydrolytic activity of mCMV285 / mCMV575” value in the experiment with mCMV285, mCMV575 (setting [5]) was “completely inhibited”. For the same compound, the “Inhibition of UbAMC hydrolytic activity of EBV205” value in the experiment with EBV205 (setting [5]) is reported as “completely inhibited”.
